Patent US20070072954A1, “Novel tetraoxaspiroalkanes and methods of use with organosilicon monomers in polyerizable compositions” (Curators of the University of Missouri, priority 2005, published 2007)
Marks after values point to notes of the source that are not given here.

Experiments:
[1] = Photoreactivity assessment (photo DSC enthalpy of polymerization); format: physicochemical; conditions: for ΔHexp / ΔHcalc / Net Enthalpy ΔH: 3 wt % PI; for ΔH (experimental)/ΔH (calculated): calculated for an inert diluent; for Exotherm Peak Maximum / Net Enthalpy ΔH: TOSU monomers 20 mol % in SIL-MIX, SIL-MIX alone; for Net Enthalpy ΔH: experimental, 1 wt % CQ, 0.1 wt % ED, 400-500 nm, 10 min, 25° C., n=1
Excerpt: In this example, the photoreactivity of various combinations of SIL-MIX alone or SIL-MIX with 3,9-diethyl-3,9-bis(allyloxymethyl)-1,5,7,11-tetraoxaspiro[5.5]undecane (DEBAOM-1,5,7,11-TOSU) 1; 3,9-bis(3-trimethylsilylpropyl)-1,5,7,11-tetraoxaspiro[5.5]undecane (BTMSP-1,5,7,11-TOSU) 2; 3,9-bis(allyloxymethyl)-2,4,8,10-tetraoxaspiro[5.5]undecane (BAOM-2,4,8,10-TOSU) 3; 3,9-bis(2-trimethylsilylethyl)-[…] (BTMSE-2,4,8,10-TOSU) 4; 3,3-diethyl-11,12-epoxy-1,5,7,16-tetraoxadispiro[5.2.5.2]hexadecane (DECHE-1,5,7,11-TOSU) 5; and 3,9-diethyl-3,9-bis(3-trimethylsilylpropyloxymethyl)-1,5,7,11-tetraoxaspiro[5.5]-undecane (DEBTMSPOM-1,5,7,11-TOSU) 6 was investigated. The photoreactivity assessments (n=1) were made using an EXFO Novacure light curing unit interfaced with a Perkin-Elmer Diamond DSC. The experimental conditions were as follows: 25° C.; N2 atmosphere; 400-500 nm light; 3 mm quartz light guides; output: 500 mW/cm measured 15 mm from sample surface. The sample weights were 15-18 mg. Standard A1 pans were used. An empty pan was placed in the reference position. Irradiation time was for 10 minutes following a 1 minute equilibration. After the initial run, the sample was re-irradiated for an additional 10 minutes. This second curve was subtracted from the initial exotherm curve to zero out artifacts due to beginning and ending of irradiation, and to compensate for the heat capacity differences between the sample pan and empty reference pan. Integrations were from time t=1.1 (lamp shutter opened) min to 11.1 min (lamp shutter closed).
In this example, reaction mixtures containing 0 or 20 mol % of TOSU monomers 1, 2, 3, 4, and 5 in SIL-MIX were formulated with 4.1 wt % photoinitiator system (3 wt % PI; 1 wt % CQ; 0.1 wt % ED). Formulated mixtures were heated for 5 minutes on an oil bath at about 60° C. and stirred magnetically to aid dissolution of the photoinitiator system and inventive monomer. Formulations were prepared and stored away from ambient light. Mixtures were tested for photoreactivity the same day as prepared.
The effect of doubling the photoinitiator (PI) content from 3 wt % to 6 wt % was also determined for selected mixtures. As in Example 7(a) above, reaction mixtures (about 2 g) were formulated with 4.1 wt % photoinitiator system (3 wt % PI; 1 wt % CQ; 0.1 wt % ED) except where noted. Formulated mixtures were heated for 5 minutes on an oil bath @ 60° C. and stirred magnetically to dissolve the photoinitiator system and 6 (DEBTMSPOM-1,5,7,11-TOSU) when included. Formulations were prepared and stored away from ambient light and tested the same day as prepared.

[2] = Oxirane ring-opening (oxirane conversion) via FTIR; format: physicochemical; conditions: thin film, 10 min irradiation
Experimental: In this example, the oxirane ring-opening of monomers 1 (DEBAOM-1,5,7,11-TOSU) or 6 (DEBTMSPOM-1,5,7,11-TOSU) was investigated using FTIR. All FTIR spectra were acquired using a Perkin-Elmer BX II FTIR spectrophotometer. The identification of the location of the oxirane absorption band in the IR spectrum of Siloranes was achieved by methanolysis. A sample was dissolved in CH2Cl2 and exposed to CH30H in the presence of a catalytic amount of zinc tetrafluoroborate hydrate overnight. The mixture was evaporated onto a salt plate. An FTIR spectrum was acquired and compared to pre-exposure spectrum. There was a significant decrease in the oxirane absorption region at 882-886 cm^−1. This band was selected as the absorption to monitor for following the oxirane ring-opening reaction.
Analytical samples contained siloranes I, II, or SIL-MIX with and without 50 mol % of monomer 1 (DEBAOM-1,5,7,11-TOSU) or 6 (DEBTMSPOM-1,5,7,11-TOSU). A thin film was brushed onto a salt plate. Irradiation (10 minutes at 23 to 25° C. and R. H.=40-45%) was provided by a 3M XL2500 curing light positioned 1-cm above the sample surface. The light intensity was measured at 360 mW/cm^2 on the sample surface. The oxirane band absorption and an internal reference band absorption were assessed before and after irradiation. Oxirane conversion (alpha) was calculated according to equation (1) by Pan et al., Polym Int 2000, 49, 74. [formula] where subscripts 0 and t represent pre-irradiation and post-irradiation respectively.

[3] = Photopolymerization stress measurement (tensilometer); format: physicochemical; conditions: for Polymerization Stress: mean(std. dev.), n=3, TOSU monomers 20 mol % in SIL-MIX, BT and SIL-MIX alone
Experimental: In this example, the photopolymerization stress of the monomers of the present invention was investigated. Stress generated during photopolymerization was measured (n=3) using an electromagnetic mechanical testing machine (Enduratec Model 3200, Bose Corp., Minnetonka, Minn.) adapted to be a tensilometer. See Feilzer et al., Dent. Mater. […] Briefly, two identical glass rods, 5 mm in diameter, were placed opposing one another and separated by 1 mm (C-factor=2.5). A displacement transducer (LVDT, Enduratec, 0.1 μm resolution, range ±1 mm) was mounted on one glass rod and was touching a plate attached to the opposing glass rod. The distance between the mounts on the opposing glass rods was about 9 mm (including the 1 mm separation between the rods). Samples placed between the glass rods were cured by irradiation (500 mW/cm^2), while under LVDT displacement control. Load-displacement data were collected at 200 Hz for 30 mins. […] From the load-displacement data, peak loads were obtained and normalized by the original area to obtain the polymerization stresses.

[4] = Mechanical properties measurement (3-point bend tests); format: physicochemical; conditions: for Flexural elastic modulus / Work of Fracture / Flexural ultimate strength: 24-h, mean(std. dev.), n=6, BT and SIL-MIX alone; for Flexural ultimate strength: the values are: Ultimate (flexural) strength
Experimental: In this example, the elastic modulus, ultimate strength, and work of fracture were determined for the monomers of the present invention. […] The resin was injected into the mold and cured by irradiation (500 mW/cm^2) followed by storage in the dark for 4 hours and 24 hours before mechanical tests were conducted. Three point bending tests were conducted using an electromagnetic mechanical testing machine (Enduratec Model 3200) with a 20-mm span and at a crosshead displacement rate of 0.5mm/ min at room temperature (25° C.). Load-displacement data were collected at 100 Hz. […] Flexural ultimate strength was determined from the peak loads and work of fracture was determined from the area under the stress-strain curve.

[5] = 20 mol % in SIL-MIX, Dunnett's test p=0.05
[6] = TOSU monomers 20 mol % in SIL-MIX

SMILES | ΔH (experimental)/ΔH (calculated) ([1]; 20 mol % in SIL-MIX) [%] | Exotherm Peak Maximum [1] [s] | Net Enthalpy ΔH [1] | Polymerization Stress [3] | elastic modulus values compared with the methacrylate control (BT) [4, 5] | ultimate strength values compared with the methacrylate control (BT) [4, 5] | Flexural elastic modulus [4, 6] [GPa] | Work of Fracture [4, 6] | Flexural ultimate strength [4, 6] [MPa] | other results
C=CCOCC1(CC)COC2(OC1)OCC(CC)(COCC=C)CO2 (centres unmarked) [Monomer 1, 3,9-diethyl-3,9-bis(allyloxymethyl)-1,5,7,11-tetraoxaspiro[5.5]undecane] | 80 | 14 | −116^b J/g | 0.17 (0.06)* N/mm^2 | significantly lower | significantly lower | 2.2 | 5.82 (2.02) kJ/m^2 | 84.6 | ΔHexp ([1]; 20 mol % in SIL-MIX): -124 J/g; ΔHexp ([1]; 50 mol % in PH-SIL): -78 J/g; ΔHcalc ([1]; calculated for inert diluent instead of TOSU at 20 mol %): -154 J/g; ΔHcalc ([1]; calculated for inert diluent instead of TOSU at 50 mol % in PH-SIL): -104 J/g; experimental ΔH as % of the calculated ΔH ([1]; 20% in SIL-MIX): 81%; experimental value as % of the calculated value (ΔH) ([1]; 50% in Ph-Sil): 75%; Oxirane Conversion ([2]; comonomer 50 mol % in PH-SIL (I)): 36%; Oxirane Conversion ([2]; comonomer 50 mol % in TET-SIL (II)): 27%
C[Si](C)(C)CCCC1COC2(OC1)OCC(CCC[Si](C)(C)C)CO2 (centres unmarked) [Monomer 2, 3,9-bis(3-trimethylsilylpropyl)-1,5,7,11-tetraoxaspiro[5.5]undecane] | 54 | 14 | −78^b J/g | 0.23 (0.06)* N/mm^2 | significantly lower | significantly lower | 1.9 | 1.12 (0.42)* kJ/m^2 | 42.4 | work of fracture values compared with the methacrylate control (BT) [4, 5]: significantly lower; all mechanical properties, overall comparison (with BT control and among formulations) ([4]; TOSU monomers 20 mol % in SIL-MIX, SIL-MIX alone): lowest mechanical property values
C=CCOCC1OCC2(CO1)COC(COCC=C)OC2 (centres unmarked) [Monomer 3, 3,9-bis(allyloxymethyl)-2,4,8,10-tetraoxaspiro[5.5]undecane] | 117 | 15 | −170^b J/g | 1.20 (0.17)* N/mm^2 | significantly lower | significantly lower | 2.13 | 7.17 (1.58) kJ/m^2 | 87.8 | enthalpies above those calculated for addition of an inert diluent ([1]; 20 mol % in SIL-MIX): 17%
C[Si](C)(C)CCC1OCC2(CO1)COC(CC[Si](C)(C)C)OC2 (centres unmarked) [Monomer 4, 3,9-bis(2-trimethylsilylethyl)-2,4,8,10-tetraoxaspiro[5.5]undecane] | 117 | 17 | −170^b J/g | 6.90 (1.76)* N/mm^2 |  | significantly lower | 2.36 | 5.63 (1.82) kJ/m^2 | 92.2 | enthalpies above those calculated for addition of an inert diluent ([1]; 20 mol % in SIL-MIX): 17%; Photopolymerization stress reduced ([3]; 20 mol % in SIL-MIX): 40%
CCC1(CC)COC2(OC1)OCC1(CCC3OC3C1)CO2 (centres unmarked) [Monomer 5, 3,3-diethyl-11,12-epoxy-1,5,7,16-tetraoxadispiro[5.2.5.2]hexadecane] | 57 | 16 | −82^b J/g | 0.33 (0.15)* N/mm^2 |  |  | 2.58 | 5.33 (1.09) kJ/m^2 | 96 | melting point: 67.4 °C
C[Si](CCC1CCC2OC2C1)(CCC1CCC2OC2C1)c1ccccc1 (centres unmarked) [PH-SIL, methylbis[2-(7-oxabicyclo[4.1.0]hept-3-yl)ethyl]phenylsilane, reference compound] |  |  |  |  |  |  |  |  |  | ΔHexp ([1]; 100% silorane): -208 J/g; Oxirane Conversion ([2]; silorane without comonomer): 31%
C[Si]1(CCC2CCC3OC3C2)O[Si](C)(CCC2CCC3OC3C2)O[Si](C)(CCC2CCC3OC3C2)O[Si](C)(CCC2CCC3OC3C2)O1 (centres unmarked) [TET-SIL, 2,4,6,8-tetramethyl-2,4,6,8-tetrakis-[2-(7-oxabicyclo[4.1.0]hept-3-yl)ethyl]-1,3,5,7-tetraoxa-2,4,6,8-tetrasilacyclooxtane, reference compound] |  |  |  |  |  |  |  |  |  | Oxirane Conversion ([2]; silorane without comonomer): 13%
